# In patent US20050009023A1, “Glucocorticoid-induced receptor and methods of use” (priority 2001, published 2005):
# What was measured:
# [1] = system: GIR mRNA in rat prefrontal cortex; assay: GIR mRNA expression following chronic amphetamine administration (competitive RT-PCR); format: in vivo; settings: for GIR mRNA levels in prefrontal cortex: mean±SE, n=6
# Procedure: (§1) GIR mRNA Expression Following Chronic Amphetamine Administration. Male Sprague-Dawley rats (200-250g, Harlan Sprague-Dawley Laboratories, Indianapolis, Ind.) received subcutaneous injection of either d-amphetamine (AMPH) (2.5 mg/kg) or saline (1 ml/kg) in their home cages once daily for 5 consecutive days (days 1-5). On day 9, four days following completion of this pre-treatment regimen, all animals were transferred to Residential Activity Chambers (RACs) (Segal and Kuczenski, 1987; Richtand et al., 2000), and received saline injection (1 ml/kg) on days 10 and 11 to measure conditioned response to injection. On day 12, seven days following completion of the pre-treatment regimen, all rats received AMPH (2.5 mg/kg) and locomotor activity was determined by photobeam monitoring for 150 minutes following injection. Locomotor activity is expressed as crossovers, defined as the number of times the animal crosses into any of four quadrants subdividing the enclosure. All animals were sacrificed by decapitation 4 hours following injection and total RNA was extracted from prefrontal cortex for determination of GIR mRNA expression. In a separate experiment, rats were injected with either AMPH (2.5 mg/kg) or saline (1 ml/kg) for 5 consecutive days, and sacrificed by decapitation 7 days after the last injection without the final AMPH challenge. Thus, four groups were generated: SAL-AMPH (Saline×5 days and AMPH at challenge), AMPH-AMPH (AMPH×5 days and AMPH at challenge), SAL (Saline×5 days), and AMPH (AMPH×5 days).
# Construction of Competitor DNA and Quantitative RT-PCR. To construct the mutant template for competitive PCR, a 20 bp GIR sequence (5′-[…]-3′, 1213-1232 bp in FIG. 1; SEQ ID NO: 18) was incorporated into the upstream primer so that a rat GIR cDNA fragment was amplified by RT-PCR using the chimeric upstream primer (5′-[…]-3′, 1213-1232 bp in FIG. 1; SEQ ID NO:19) and the downstream primer (5′-CGGCCACAGTGGGTTCCAC-3′, 1575-1557 in FIG. 1; SEQ ID NO:13). The 262 bp PCR product was subcloned into pGEM-T vector (Promega, Madison, Wis.). The plasmid DNA was purified (Qiagen, Valencia, Calif.) and insert was verified by DNA sequencing. A fragment containing the mutant rat GIR template (262 bp) was released by EcoRI digestion and purified by agarose gel electrophoresis. DNA concentration was determined spectrophotometrically. Serial dilutions of mutant template were prepared.
# The amount of GIR mRNA was quantitated by competitive RT-PCR as described previously (Miao et al., 2000). Briefly, reverse transcription was performed with 2 μg of total RNA using a non-specific random hexamer primer (Promega, Madsion, Wis.). One μl of first strand cDNA was mixed with known amounts of linearized competitor DNA ranging from […], and subjected to co-amplification with GIR-specific primers (5′-[…]-3′, 1213-1232 bp, SEQ ID NO:IS; and 5′-CGGCCACAGTGGGTTCCAC-3′, 1575-1557 bp in FIG. 1, SEQ ID NO:14). PCR was run for 30 cycles of 94° C./1 min, 60° C./2 min 72° C./3 min, and the PCR products were electrophoresed on 1.2% agarose gel. The intensities of bands, corresponding to the products from the GIR mRNA and the competitor with 101-bp size difference, was analyzed densitometrically by BioImage system combined with NIH software (Bio-Rad, Hercules, Calif.). The intensity ratios between the two bands were logarithmically plotted against the known initial input of competitor template, and the amount of GIR mRNA in the total RNA samples was calculated by linear regression. […]
# Male Sprague-Dawley rats = assay: Locomotor activity (crossovers) after amphetamine challenge, behavioral sensitization; format: in vivo, rat; settings: AMPH 2.5 mg/kg challenge, mean±SE
# Procedure: as §1
structure (smiles),measurement,setting,value
"C[C@H](N)Cc1ccccc1 [amphetamine, D-Amphetamine]","GIR mRNA levels in prefrontal cortex, increase of AMPH-AMPH rats compared to SAL-AMPH rats","[1]; AMPH 2.5 mg/kg s.c. x5 days, AMPH challenge 7 days after, sacrificed 4 hours after injection, n=6, P<0.05",1.38 fold
same,"GIR mRNA levels in prefrontal cortex, increase of AMPH rats compared to SAL rats","[1]; AMPH 2.5 mg/kg x5 days, no challenge injection, 7 days after last injection, n=6, P<0.05",1.70 fold
same,GIR mRNA levels in prefrontal cortex,"[1]; AMPH rats (AMPH x5 days, no challenge), 7 days after amphetamine ceased",3.65±0.22 fg/100 ng total RNA
same,GIR mRNA levels in prefrontal cortex,"[1]; AMPH-AMPH rats (AMPH x5 days and AMPH at challenge), 2.5 mg/kg s.c.",2.97(±0.26 fg/100 ng total RNA
same,GIR mRNA levels in prefrontal cortex,[1]; SAL-AMPH rats (saline x5 days and AMPH 2.5 mg/kg at challenge),2.27(±0.22 fg/100 ng total RNA
same,locomotion at 12-60 min post-injection (focused stereotypy phase),"Male Sprague-Dawley rats; AMPH-AMPH rats, n=6, P<0.0001",50.20±12.63 crossovers/12-60 min
same,locomotion at 60-150 min (post-stereotypy locomotion phase),"Male Sprague-Dawley rats; AMPH-AMPH rats, n=6, P<0.05",496.67±70.28 crossovers/60-150min
same,locomotion at 12-60 min post-injection (focused stereotypy phase),"Male Sprague-Dawley rats; SAL-AMPH rats, n=6",286.00±27.57 crossovers/12-60 min
same,locomotion at 60-150 min (post-stereotypy locomotion phase),"Male Sprague-Dawley rats; SAL-AMPH rats, n=6",312.25±29.17 crossovers/60-150min
